Measurements published in PMC11335192, “Unveiling the crucial role of betaine: modulation of GABA homeostasis via SLC6A1 transporter (GAT1)” (Cellular and Molecular Life Sciences: CMLS, 2024).

Legend:
Format in all cases: cell-based
rat GAT1 (rGAT1) = target: T1, rat GAT1 (rGAT1) (Rattus norvegicus, UniProt P23978); experiment: TEVC transport currents in Xenopus oocytes; LC-MS/MS uptake; [3H]-GABA efflux in HEK293-rGAT1 cells
T1 construct: gene Slc6a1

human GAT1 (hGAT1) = target: T2, human GAT1 (hGAT1) (Homo sapiens, UniProt P30531); experiment: automated whole-cell patch clamp (Patchliner) on CHO cells overexpressing hGAT1
T2 construct: gene SLC6A1
T2 sequence (P30531 whole entry): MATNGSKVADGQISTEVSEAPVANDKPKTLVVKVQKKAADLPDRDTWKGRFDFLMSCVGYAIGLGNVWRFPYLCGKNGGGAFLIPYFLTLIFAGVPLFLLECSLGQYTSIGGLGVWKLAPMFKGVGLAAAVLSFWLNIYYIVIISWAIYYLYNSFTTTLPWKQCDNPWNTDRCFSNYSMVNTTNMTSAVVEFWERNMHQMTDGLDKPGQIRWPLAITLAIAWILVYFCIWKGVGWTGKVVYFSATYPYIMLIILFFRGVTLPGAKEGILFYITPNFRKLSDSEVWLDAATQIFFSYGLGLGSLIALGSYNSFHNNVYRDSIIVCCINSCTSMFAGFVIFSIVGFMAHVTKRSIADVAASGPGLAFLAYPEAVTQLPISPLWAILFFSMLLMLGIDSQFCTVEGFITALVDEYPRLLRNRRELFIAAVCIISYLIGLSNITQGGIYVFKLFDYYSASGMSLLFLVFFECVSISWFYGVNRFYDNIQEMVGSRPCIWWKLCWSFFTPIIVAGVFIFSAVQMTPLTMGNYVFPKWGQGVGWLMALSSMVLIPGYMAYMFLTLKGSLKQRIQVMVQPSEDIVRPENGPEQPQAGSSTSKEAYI

canine BGT-1 (cBGT-1) = target: T3, canine BGT-1 (cBGT-1) (Canis lupus, UniProt P27799); experiment: TEVC transport currents in Xenopus oocytes
T3 construct: gene SLC6A12
T3 sequence (P27799 1-614): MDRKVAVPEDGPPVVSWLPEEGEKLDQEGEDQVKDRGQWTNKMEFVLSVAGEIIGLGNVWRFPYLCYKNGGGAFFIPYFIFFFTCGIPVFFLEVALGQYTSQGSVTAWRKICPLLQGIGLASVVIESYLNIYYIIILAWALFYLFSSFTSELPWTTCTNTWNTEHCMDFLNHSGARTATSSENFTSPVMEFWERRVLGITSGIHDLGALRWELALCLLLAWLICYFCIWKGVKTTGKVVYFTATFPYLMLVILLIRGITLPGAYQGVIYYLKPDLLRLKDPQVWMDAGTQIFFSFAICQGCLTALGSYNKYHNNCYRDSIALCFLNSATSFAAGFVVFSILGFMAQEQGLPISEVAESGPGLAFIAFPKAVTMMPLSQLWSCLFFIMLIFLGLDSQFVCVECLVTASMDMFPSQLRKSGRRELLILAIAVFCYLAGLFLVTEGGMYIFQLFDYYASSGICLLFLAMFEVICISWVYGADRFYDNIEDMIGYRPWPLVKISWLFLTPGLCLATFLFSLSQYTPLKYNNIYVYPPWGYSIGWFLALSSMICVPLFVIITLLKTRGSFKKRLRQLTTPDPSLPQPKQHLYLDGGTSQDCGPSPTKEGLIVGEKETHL

SMILES: C[N+](C)(C)CC(=O)O [Betaine]
- EC50 (rat GAT1 (rGAT1)): 11.6 mM
- EC50 (human GAT1 (hGAT1)): ~27 mM
- EC50 (canine BGT-1 (cBGT-1)): 1.69 mM
